Assay results as given in ChEMBL document CHEMBL4421721, “Use of dynamin ring stabilizers” (2012).
pEC50, pIC50: −log10 of the molar value. The source made the active and inactive calls. No cut-off for these calls is given here.

How the values were obtained:
Ovis aries [1] = organism: Ovis aries; test: (§1) Ring stabilizer activity at full-length native sheep brain dynamin 1 assessed as stimulation of GTPase activity in absence of PS liposomes
Dynamin-2 (Homo sapiens) [2] = biological target: T1, Dynamin-2 (Homo sapiens) (UniProt P50570); test: Inhibition of Dynamin-2 in human lymphoblasts assessed as accumulation of clathrin coated pits at the plasma membrane incubated for 30 mins by electron microscopic analysis
T1 sequence (whole entry): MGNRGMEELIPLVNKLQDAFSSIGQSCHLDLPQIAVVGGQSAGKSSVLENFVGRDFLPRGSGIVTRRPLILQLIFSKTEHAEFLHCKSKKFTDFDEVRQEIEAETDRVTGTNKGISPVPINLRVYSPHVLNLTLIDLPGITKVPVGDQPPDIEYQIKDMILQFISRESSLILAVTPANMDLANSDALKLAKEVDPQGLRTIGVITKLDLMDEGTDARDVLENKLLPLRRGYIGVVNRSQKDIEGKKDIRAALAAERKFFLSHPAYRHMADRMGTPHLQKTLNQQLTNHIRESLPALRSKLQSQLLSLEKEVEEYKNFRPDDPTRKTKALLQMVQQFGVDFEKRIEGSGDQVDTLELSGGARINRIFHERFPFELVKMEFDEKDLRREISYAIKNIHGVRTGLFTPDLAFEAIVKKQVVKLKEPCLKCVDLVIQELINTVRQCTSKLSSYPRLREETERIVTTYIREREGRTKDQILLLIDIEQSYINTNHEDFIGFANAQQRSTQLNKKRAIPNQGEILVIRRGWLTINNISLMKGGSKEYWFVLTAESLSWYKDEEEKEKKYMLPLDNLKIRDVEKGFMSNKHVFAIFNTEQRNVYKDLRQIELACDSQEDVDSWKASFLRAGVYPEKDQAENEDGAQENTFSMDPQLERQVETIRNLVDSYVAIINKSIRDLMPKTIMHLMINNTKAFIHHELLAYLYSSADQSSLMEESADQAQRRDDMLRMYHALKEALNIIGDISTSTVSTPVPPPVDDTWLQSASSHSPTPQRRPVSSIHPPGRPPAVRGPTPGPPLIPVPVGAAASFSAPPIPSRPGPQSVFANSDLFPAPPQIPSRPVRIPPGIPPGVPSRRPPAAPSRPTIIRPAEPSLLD

Ovis aries [3] = organism: Ovis aries; test: Ring stabilizer activity at full-length native sheep brain dynamin 1 assessed as stimulation of GTPase activity in absence of PS liposomes and in presence of tween-80
[4] = Inhibition of full-length native sheep brain dynamin 1 assessed as reduction in PS liposomes-induced GTPase activity in presence of tween-80 using 7 nM full-length dynamin 1; set-up: species or system Ovis aries; settings: for pIC50: read-out: IC50
[5] = Inhibition of full-length native sheep brain dynamin 1 assessed as reduction in PS liposomes-induced GTPase activity in absence of tween-80 using 7 nM full-length dynamin 1; set-up: species or system Ovis aries
Ovis aries [6] = organism: Ovis aries; test: Induction of ring assembly of full-length native sheep brain dynamin 1 at 300 uM using 520 nM full-length dynamin in presence of 40 mM NaCl by Coomassie staining based SDS gel electrophoresis method
Ovis aries [7] = organism: Ovis aries; test: Induction of ring assembly of full-length native sheep brain dynamin 1 at 100 uM using 520 nM full-length dynamin in presence of 40 to 60 […] by Coomassie staining based SDS gel electrophoresis method
Dynamin-1 (Homo sapiens) = biological target: T2, Dynamin-1 (Homo sapiens) (UniProt Q05193); test: Ring stabilizer activity at recombinant dynamin 1 dimeric GG2 form (unknown origin) assessed as stimulation of GTPase activity using 200 to 1000 nM full-length dynamin
T2 sequence (whole entry): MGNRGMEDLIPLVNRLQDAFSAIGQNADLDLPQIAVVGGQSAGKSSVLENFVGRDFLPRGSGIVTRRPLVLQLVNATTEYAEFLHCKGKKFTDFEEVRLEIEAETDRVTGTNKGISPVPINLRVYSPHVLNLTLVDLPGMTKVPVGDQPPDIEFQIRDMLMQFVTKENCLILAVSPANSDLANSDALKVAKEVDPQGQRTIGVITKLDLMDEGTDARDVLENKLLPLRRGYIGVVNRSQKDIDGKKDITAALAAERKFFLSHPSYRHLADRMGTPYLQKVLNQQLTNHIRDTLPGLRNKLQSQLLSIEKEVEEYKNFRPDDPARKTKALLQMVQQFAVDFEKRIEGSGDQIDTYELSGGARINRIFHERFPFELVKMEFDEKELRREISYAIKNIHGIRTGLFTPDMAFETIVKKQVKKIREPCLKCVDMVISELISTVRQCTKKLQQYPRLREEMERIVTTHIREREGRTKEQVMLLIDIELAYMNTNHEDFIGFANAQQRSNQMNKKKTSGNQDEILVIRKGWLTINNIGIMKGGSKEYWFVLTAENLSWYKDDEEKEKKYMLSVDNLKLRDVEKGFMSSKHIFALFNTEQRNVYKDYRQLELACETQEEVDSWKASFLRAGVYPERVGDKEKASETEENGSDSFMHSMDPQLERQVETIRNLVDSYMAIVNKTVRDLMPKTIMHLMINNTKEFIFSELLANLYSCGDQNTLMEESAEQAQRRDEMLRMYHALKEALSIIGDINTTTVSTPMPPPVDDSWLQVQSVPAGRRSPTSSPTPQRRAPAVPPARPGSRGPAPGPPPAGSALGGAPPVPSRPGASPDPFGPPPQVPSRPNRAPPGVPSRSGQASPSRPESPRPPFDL

Dynamin-2 (Homo sapiens) [8] = biological target: T1, Dynamin-2 (Homo sapiens); test: Ring stabilizer activity at Dynamin-2 in human lymphoblasts assessed as accumulation in all cells of clathrin coated pits with highly elongated necks incubated for 30 mins by electron microscopic analysis; type: cell-based
Dynamin-2 (Homo sapiens) [9] = biological target: T1, Dynamin-2 (Homo sapiens); test: Ring stabilizer activity at Dynamin-2 in human lymphoblasts assessed as accumulation in all cells of clathrin coated pits with highly elongated necks encircled by electron dense rings incubated for 30 mins by electron microscopic analysis; type: cell-based
[10] = biological target: T3, Dynamin-1 (Rattus norvegicus) (UniProt P21575); test: Ring stabilizer activity at Dynamin-1 rat brain synaptosomes depolarised with KCl assessed as formation of trapped endocytic pits encircled by a single electron dense ring incubated for 30 mins by electron microscopic analysis; type: subcellular
T3 sequence (whole entry): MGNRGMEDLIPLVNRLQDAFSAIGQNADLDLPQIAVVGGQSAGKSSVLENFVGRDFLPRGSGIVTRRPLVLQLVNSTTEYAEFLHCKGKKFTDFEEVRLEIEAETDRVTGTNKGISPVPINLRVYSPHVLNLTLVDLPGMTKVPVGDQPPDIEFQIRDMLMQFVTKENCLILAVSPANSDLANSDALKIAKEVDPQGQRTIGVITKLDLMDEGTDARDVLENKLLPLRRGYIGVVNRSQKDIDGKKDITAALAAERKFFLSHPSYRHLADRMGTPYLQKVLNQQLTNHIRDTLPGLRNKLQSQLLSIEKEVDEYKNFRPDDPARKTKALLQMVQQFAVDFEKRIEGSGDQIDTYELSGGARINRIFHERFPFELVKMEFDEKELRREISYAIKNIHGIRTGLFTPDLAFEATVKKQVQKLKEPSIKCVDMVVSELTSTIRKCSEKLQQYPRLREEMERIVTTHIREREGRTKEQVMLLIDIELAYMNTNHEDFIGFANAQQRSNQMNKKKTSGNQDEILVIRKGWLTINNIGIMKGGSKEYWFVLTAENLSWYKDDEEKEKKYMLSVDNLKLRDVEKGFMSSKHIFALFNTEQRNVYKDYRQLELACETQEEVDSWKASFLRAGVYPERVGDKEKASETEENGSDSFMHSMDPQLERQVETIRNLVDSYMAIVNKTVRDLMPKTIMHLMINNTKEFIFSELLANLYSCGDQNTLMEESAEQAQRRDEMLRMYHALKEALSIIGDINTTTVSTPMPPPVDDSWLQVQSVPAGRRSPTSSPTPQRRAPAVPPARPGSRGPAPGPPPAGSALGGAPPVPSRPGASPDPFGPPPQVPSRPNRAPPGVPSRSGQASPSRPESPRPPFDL

Dynamin-2 (Homo sapiens) [11] = biological target: Dynamin-2 (Homo sapiens) (UniProt P50570); test: Inhibition of Dynamin-2 in human lymphoblasts incubated for 30 mins by electron microscopic analysis
[12] = Inhibition of full-length native sheep brain dynamin 1 assessed as reduction in PS liposomes-induced GTPase activity using 20 nM full-length dynamin 1; set-up: species or system Ovis aries
[13] = as §1; set-up: species or system Ovis aries
[14] = Inhibition of full-length native sheep brain dynamin 1 assessed as reduction in PS liposomes-induced GTPase activity; set-up: species or system Ovis aries
[15] = Ring stabilizer activity at full-length native sheep brain dynamin 1 assessed as stimulation of GTPase activity in absence of PS liposomes using 200 nM full-length dynamin 1; set-up: species or system Ovis aries; settings: for pEC50: read-out: EC50
Ovis aries [16] = organism: Ovis aries; test: Inhibition of dis-assembly of pre-assembled full-length native sheep brain dynamin 1 pre-incubated in presence of PS liposomes followed compound addition at 5 uM and measured after 10 mins

O=C(N/N=C/c1ccc(O)c(O)c1)c1cc2ccccc2cc1O
Activity (Ovis aries [1]): Active | inhibition (Dynamin-2 (Homo sapiens) [2]): Active

CCCCCCCCCCNC(=O)/C(C#N)=C/c1cn(CCN(C)C)c2ccccc12
Activity (Ovis aries [3]): Active

O=C(N/N=C/c1cc(O)cc(O)c1)c1cc2ccccc2cc1O
IC50 [4]: Not Active | pIC50 [5]: 4.40

CCCCCCCCNC(=O)/C(C#N)=C/c1c(C)n(CCN(C)C)c2ccccc12
Activity (Ovis aries [3]): Active

N#C/C(=C\c1ccc(O)c(O)c1)C(=O)NCCCNC(=O)/C(C#N)=C/c1ccc(O)c(O)c1
Activity (Ovis aries [6]): Active | Activity (Ovis aries [7]): Active | Activity (Dynamin-1 (Homo sapiens)): inactive | Activity (Dynamin-2 (Homo sapiens) [8]): Active | Activity (Dynamin-2 (Homo sapiens) [9]): Active | Activity [10]: Active | Activity (Ovis aries [3]): Active

CETRIMIDE
inhibition (Dynamin-2 (Homo sapiens) [11]): Active

O=C(N/N=C/c1ccc(O)cc1O)c1cc2ccccc2cc1O
pIC50 [4]: 3.70 | pIC50 [5]: 5.14

N=c1oc2cc(O)c(O)cc2cc1C(=O)NCCCNC(=O)c1cc2cc(O)c(O)cc2oc1=N
pIC50 [12]: 6.59 | pEC50 [13]: 5.40

COc1cc(/C=N/NC(=O)c2cc3ccccc3cc2O)c(O)cc1O
pIC50 [4]: 2.93 | pIC50 [5]: 5.44

O=C(N/N=C/c1cccc(O)c1O)c1cc2ccccc2cc1O
pIC50 [4]: 4.70 | pIC50 [5]: 4.66

CCCCCCCCCCCCCCCCCC[N+](C)(C)C
Activity (Ovis aries [3]): Active

CCCCCCNC(=O)/C(C#N)=C/c1c(C)n(CCCN(C)C)c2ccccc12
Activity (Ovis aries [3]): Active

O=C(N/N=C/c1cc(O)c(O)cc1O)c1cc2ccccc2cc1O
pIC50 [4]: 5.57 | pIC50 [14]: 6.52 | Activity (Ovis aries [1]): Active | Activity (Ovis aries [3]): inactive

N=c1oc2c(O)cccc2cc1C(=O)NCCCNC(=O)c1cc2cccc(O)c2oc1=N
pIC50 [12]: 4.44 | EC50 [15]: Not Active

N=c1oc2c(O)c(O)ccc2cc1C(=O)NCCCNC(=O)c1cc2ccc(O)c(O)c2oc1=N
pIC50 [12]: 6.35 | pEC50 [13]: 6.00 | Activity (Dynamin-1 (Homo sapiens)): inactive

N=c1oc2cc(O)c(O)cc2cc1C(=O)NCCNC(=O)c1cc2cc(O)c(O)cc2oc1=N
pIC50 [12]: 6.48 | pEC50 [15]: 4.51

O=C(N/N=C/c1cc(O)c(O)c(O)c1)c1cc2ccccc2cc1O
pIC50 [4]: 3.33 | pIC50 [5]: 5.36

CCCCCCNC(=O)/C(C#N)=C/c1c(C)n(CCN(C)C)c2ccccc12
Activity (Ovis aries [3]): Active

N=c1oc2cc(O)ccc2cc1C(=O)NCCCNC(=O)c1cc2ccc(O)cc2oc1=N
pIC50 [12]: 4.76 | pEC50 [15]: 4.40

O=C(N/N=C/c1ccc(O)c(O)c1O)c1cc2ccccc2cc1O
IC50 [4]: Not Active | pIC50 [5]: 5.51

CCCCCCCCNC(=O)/C(C#N)=C/c1cn(CCCN(C)C)c2ccccc12
Activity (Ovis aries [1]): inactive | inhibition (Ovis aries [16]): Active | Activity (Ovis aries [3]): Active
